Each compound was assayed on spirally cut strips of rat aorta (assay: Inhibition of calcium-induced contraction of isolated rat aorta strips (concentration required to reduce the response by 50%)). Conditions: 0.75 h, in vitro, 45 millimolar potassium, contraction by calcium chloride, final calcium 2 millimolar, retest after 45 minutes with compound present, read-out: IC50 (molar concentration of the compounds required to reduce the response by 50%).
Type: cell-based
Procedure: The ability of the compounds to inhibit the movement of calcium into the cell is shown by their effectiveness in reducing the response of isolated […] to an increase in calcium ion concentration in vitro. The test is performed by mounting spirally cut strips of rat aorta with one end fixed and the other attached to a force tranducer. The tissue is immersed in a bath of physiological saline solution containing potassium ions at a concentration of 45 millimolar and no calcium. Calcium chloride is added to the bath with a pipette to give a final calcium ion concentration of 2 millimolar. The change in tension caused by the resulting contraction of the tissue is noted. The bath is drained and replaced with fresh saline solution and, after 45 minutes, the test is repeated with the particular compound under test present in the saline solution. The concentration of compound required to reduce the response by 50% is recorded.

In order of rising IC50:
1. CCOC(=O)C1=C(COCCN2CCN(c3nccs3)CC2)NC(C)=C(C(=O)OC)C1c1ccccc1Cl (stereo not shown) [Example 4]  0.015 µM
2. CCOC(=O)C1=C(COCCN2CCN(c3nc(N)n(C)n3)CC2)NC(C)=C(C(=O)OC)C1c1ccccc1Cl (stereo not drawn) [Example 6 (least polar isomer), 2-[2-(4-{5-amino-1-methyl-1,2,4-triazol-3-yl}-piperazin-1-yl)ethoxymethyl]-4-(2-chlorophenyl)-3-ethoxycarbonyl-5-methoxycarbonyl-6-methyl-1,4-dihydropyridine]  0.026 µM
3. CCOC(=O)C1=C(COCCN2CCN(c3nccc(=O)[nH]3)CC2)NC(C)=C(C(=O)OC)C1c1ccccc1Cl (stereo not shown) [Example 3]  0.036 µM
4. CCOC(=O)C1=C(COCCN2CCN(c3nc(N)n[nH]3)CC2)NC(C)=C(C(=O)OC)C1c1ccccc1Cl (stereo not shown) [Example 5, 2-{2-[4-(5-Amino-1,2,4-triazol-3-yl)piperazine-1-yl]ethoxymethyl}-4-(2-chlorophenyl)-3-ethoxycarbonyl-5-methoxycarbonyl-6-methyl-1,4-dihydropyridine, bis-maleate hemihydrate]  0.038 µM
5. CCOC(=O)C1=C(COCCN2CCN(c3nc(N)nn3C)CC2)NC(C)=C(C(=O)OC)C1c1ccccc1Cl (single isomer, unassigned) [Example 6 (more polar isomer), 2-[2-(4-{3-amino-1-methyl-1,2,4-triazol-5-yl}-piperazin-1-yl)ethoxymethyl]-4-(2-chlorophenyl)-3-ethoxycarbonyl-5-methoxycarbonyl-6-methyl-1,4-dihydropyridine hemihydrate]  0.1 µM
6. CCOC(=O)C1=C(COCCN2CCN(C3=NCCN3)CC2)NC(C)=C(C(=O)OC)C1c1ccccc1Cl (stereo not shown) [Example 2]  0.1 µM
7. CCOC(=O)C1=C(COCCN2CCN(C3=NCCC3)CC2)NC(C)=C(C(=O)OC)C1c1ccccc1Cl (stereo not shown) [Example 1, 2-[2-(4-(1-Pyrrolin-2-yl)-piperazin-1-yl)ethoxymethyl]-4-(2-chlorophenyl)-3-ethoxycarbonyl-5-methoxycarbonyl-6-methyl-1,4-dihydropyridine]  0.141 µM

— patent US4547502A, “Dihydropyridines and their use in treating cardiac conditions and hypertension” (Pfizer Inc., priority 1982, dated 1985)
